# Source: patent publication US20080260636A1, “STABILIZATION OF RADIONUCLIDE-CONTAINING COMPOSITIONS” (priority 2001, published 2008)
# Where a SMILES comes first, the peptide text is derived from it. [ ]: non-standard residue; d: D form. The star is where a group is joined. X1 = NCCCC[C@H](NC(=O)[C@H](CS)NC(=O)[C@H](CCCCN)NC(=O)[C@@H](N)CNC(=O)C*)C(N)=O; NMeF = CN[C@@H](Cc1ccccc1)C(=O)O; hCys = N[C@@H](CCS)C(=O)O
# Columns and labels:
# [1] = RCP of single vial kit (iodide formulated with targeting agent) reconstituted with Tc 99m; type: physicochemical
# Method: (§1) KI affords stability to Tc-99m depreotide even when an oxidant (i.e. nitrate) is present in the eluate. Potassium iodide is well tolerated in humans unlike other stabilizing agents such as methionine or trolox. Methods for determining the RCP value are known in the art such as described in Cancer Res. (1998), May 1, 58(9):1850-1859, and J. Nucl. Med. (1996), June, 37(6): 1016-1022.
# (§2) Further examples were conducted to show the stabilizing effect of the iodide ion for other complexes under varying conditions and with varying amounts and sources (KI and NaI) of iodide ion.
# [2] = RCP of 2-vial kit (iodide added to formulated kit, then Tc-99m added); type: physicochemical; details: 2-vials
# Method: as §1, §2
structure (smiles),measurement,setting,value
"CC(C)[C@@H]1NC(=O)[C@H](CCCCN)NC(=O)[C@@H](Cc2c[nH]c3ccccc23)NC(=O)[C@H](Cc2ccc(O)cc2)NC(=O)[C@H](Cc2ccccc2)N(C)C(=O)[C@H](CCSCC(=O)NC[C@H](N)C(=O)N[C@@H](CCCCN)C(=O)N[C@@H](CS)C(=O)N[C@@H](CCCCN)C(N)=O)NC1=O [Depreotide, depreotide] (cyclo([hCys](X1)[NMeF]Y[dW]KV))",% RCP,"[1]; KI 4 mg, 5 h",89%
same,% RCP,"[1]; KI 5 mg, 6 h",93%
same,% RCP,"[1]; KI 6 mg, 5 h",95%
same,% RCP,"[1]; NaI 8 mg, 6 h",91%
same,% RCP,"[1]; NaI 10 mg, 5 h",93%
same,% RCP,"[2]; KI 4 mg, 5 h",94%
same,% RCP,"[2]; KI 6 mg, 5 h",94%
same,% RCP,"[2]; KI 10 mg, 6 h",95%
